# In US20110319274A1, “Identification of Compounds Modifying a Cellular Response” (Carlsberg A/S, priority 2004, published 2011):
# Test system: GFP expressing U2OS cells and Hek293 cells
# Assay: Adhesion peptide screening for low fluorescence/high adherence properties (FABS, microscope)
# Assay type: cell-based, Human
# Conditions: re-synthesized peptides on beads
# Procedure: An adhesion D-amino peptide library was synthesized (500,000 members) as described above in Example 1 and screened for low fluorescence/high adherence properties. This was done in 4 steps:
# 1) Selection of low fluorescent beads by Fluorescence Activated Bead Sorting (FABS).
# The 500,000 member adhesion peptide library was FABSorted and 150,000 low fluorescent beads were isolated.
# 2) Selection of beads with good cell adhesion properties.
# The 150,000 low fluorescent beads were incubated with GFP expressing U2OS cells followed by FABS sorting for high fluorescence (high cell adhesion). 536 beads were isolated.
# 3) Identification and isolation of beads with high Hek293 cell adherence properties.
# The 536 beads were cleared for U2OS cells and incubated with GFP expressing Hek293 cells. 47 beads with high cell adhesion properties were isolated using a fluorescence microscope.
# 4) Sequence elucidation and re-synthesis of selected peptides.
# 22 peptides were sequenced and six of them were re-synthesized. Based on Structure-Activity of the six peptides, four additional ones (AP-7 […] AP-10) were synthesized.
substance,measurement,value
arg-gln-arg-ile-arg (RQRIR; Cell adhesion peptide) [SEQ IS 35],overall performance (low fluorescence/high adherence properties),best overall performance
